This is an account of results in patent US11662349B2, “Carbohydrate sensors” (Commonwealth Scientific and Industrial Research Organisation, priority 2017, dated 2023).

Values joined by “and” are separate entries in the source; they are usually repeats but may differ in a detail not shown here. Identical values can stand only once.

In assay [1] the target is LacB1 sensor, GFP^2-BgaR-RLuc8 fusion protein, SEQ ID NO: 15 (BgaR from Clostridium perfringins strain 13, SEQ ID NO: 1) (Clostridium perfringens, UniProt Q8XMB9). Put plainly: biochemical. It is filed as binding.
The target of assay [2] is LacF1 sensor, His6-CFP-BgaR-YFP fusion protein, SEQ ID NO: 23 (BgaR from Clostridium perfringins strain 13, SEQ ID NO: 1) (Clostridium perfringens, UniProt Q8XMB9). It is filed as binding.

On to `OC[C@H]1OC(O)[C@H](O)[C@@H](O)[C@H]1O` (some centres unmarked) [galactose], for which the “change in BRET^2 ratio” value in assay [1] was 3% and 13%.
Same read-out and setting: next, `OC[C@H]1OC(O)[C@H](O)[C@@H](O)[C@@H]1O` (some centres unmarked) [glucose]: 9% and 6%.
In the case of `OC[C@H]1O[C@@H](O[C@H]2[C@H](O)[C@@H](O)C(O)O[C@@H]2CO)[C@H](O)[C@@H](O)[C@H]1O` (stereo partly drawn) [lactose, β-D-galactosyl-(1→4)-D-glucose], in assay [2], the “RET ratio in the presence of lactose” value is recorded as 1.089±0.004 and the “decrease in RET ratio” value is 10%. Further, in assay [1], the “RET ratio in the presence of lactose” value came out at 0.800±0.003, the “change in BRET^2 ratio” value was “approximately 35%” and the “drop in RET ratio” value was found to be 27%. Further, in assay [1] (EC50 (lactose)), the EC50 was 12 µM and 21 µM and 11 to 14 µM and 18 to 23 µM.
Consider `OC[C@H]1O[C@@H](O[C@@H]2[C@@H](CO)OC(O)(CO)[C@H]2O)[C@H](O)[C@@H](O)[C@H]1O` (stereo partly drawn) [lactulose, 4-O-β-D-galactosyl-D-fructose], for which, in assay [1], the “affinity of LacB1 for lactulose weaker than for lactose” value was “approximately 150 fold”; the “change in BRET^2 ratio” value was “approximately 21%”; the “difference in EC50 between lactose and lactulose” value came to 200 fold; the “limit of detection (LOD), lactulose” value is listed as 0.1 mM. Besides, the “limit of detection for lactulose higher than for lactose” value in assay [1] was 100 fold. For the same molecule, in assay [1] (EC50 (lactulose)), the EC50 was 2400 ± 200 µM.
